Data set [1] can be described thus: RNA encapsulation efficiency of LNPs (Ribogreen fluorescence assay). It counts as physicochemical. An outline of the steps:
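LNPs were diluted in 1× TE with 0.2% Triton X-100 (total RNA) or without it (free RNA), stained with RiboGreen for ~10 min at room temperature in the dark, and read at Ex 488/Em 525 nm against standard curves of the starting RNA. Encapsulation efficiency = (Total − Free)/Total.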

A short description of data set [2]: Dynamic light scattering of LNPs: Z-average diameter, number average diameter, PDI. It counts as physicochemical. Summed up:
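LNP samples were diluted in PBS and measured by DLS to give intensity-based Z-average diameter, number average diameter and polydispersity index. PDI describes size spread around the mean, with zero meaning a uniform population.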

Data set [3] concerns Transthyretin (TTR). In words: Serum TTR ELISA in mice after LNP dosing. The class given is in vivo, CD-1 female mice. The following applies: guide G282 experiments. An outline of the steps: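 Female CD-1 mice, 6–10 weeks, given LNPs by tail-vein injection (~10 mL/kg), 0.1 mg/kg unless noted; serum taken at day 6 or 7 by cardiac puncture. Total mouse TTR by ELISA on sera diluted 10,000-fold (0.1 mg/kg) or 10,000- and 2,500-fold (0.3 mg/kg).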

For a further data set, the system named is TTR rat gene. Description: In vivo editing in rat liver, sgRNA targeting TTR (G534), % indel by NGS. Also on record: species or system Sprague Dawley female rats. The following applies: G534 sgRNA + Cas9 mRNA LNP, Experiment 109. How it is done: Sprague Dawley female rats ranging from 6-7 weeks of age were used in each study. Each animal was weighed and dosing solutions were prepared based on body weight. LNPs were dosed via the lateral tail vein in a volume of 0.35 mL per animal (approximately 2 mL per kilogram body weight). The animals were periodically observed for adverse effects for at least 24 hours post dose.
For studies measuring in vivo editing in liver, animals were dosed at 0.1 mg/kg or 0.3 mg/kg. Animals were euthanized by CO2 asphyxiation 6 days post dose. At necropsy, the liver was collected for editing analysis by NGS and blood was collected into serum separator tubes for serum TTR measurement.
In brief, to quantitatively determine the efficiency of editing at the target location in the genome, genomic DNA was isolated and deep sequencing was utilized to identify the presence of insertions and deletions introduced by gene editing.
PCR primers were designed around the target site (e.g., within B2M), and the genomic area of interest was amplified. Additional PCR was performed according to the manufacturer's protocols (Illumina) to add the necessary chemistry for sequencing. The amplicons were sequenced on an Illumina MiSeq instrument. The reads were aligned to the mouse or rat reference genome (e.g., GRCm38) after eliminating those having low quality scores. The resulting files containing the reads were mapped to the reference genome (BAM files), where reads that overlapped the target region of interest were selected and the number of wild type reads versus the number of reads which contain an insertion, substitution, or deletion was calculated.
The editing percentage (e.g., the “indel efficiency” or “percent indels”) was defined as the total number of sequence reads with insertions or deletions over the total number of sequence reads, including wild type.
In vivo delivery in a rat model was assessed by measuring editing efficiency for materials delivered with formulations including various amine lipid compounds. Cas9 mRNA (SEQ ID NO: 6) was formulated as LNPs with an sgRNA targetting the TTR rat gene (G534, SEQ ID NO: 5). LNPs were formulated and characterized as described in Example 123. Analysis of average particle size, polydispersity (PDI), total RNA content and encapsulation efficiency of RNA are shown in Table 10.
Sprague Dawley female rats were dosed i.v. at 0.1 or 0.3 mg/kg and assessed for editing in liver.

The subject of data set [4] is Transthyretin (TTR). Description: Serum TTR measurement in rats after LNP dosing. It counts as in vivo, Sprague Dawley female rats. The following applies: Experiment 109; for Serum TTR % TSS: rat serum TTR relative to TSS control; for Serum TTR: rat serum, G534 sgRNA + Cas9 mRNA LNP.
The mark [5] stands for this setting: LNP with G534 sgRNA and Cas9 mRNA, sg:mRNA 1:2, experiment 109.
[6] abbreviates: LNP, sg:mRNA 1:1, N/P about 6, 50/9/38/3, Table 2, Experiments 2-20.

Take `CCCCC/C=C\C/C=C\CCCCCCCC(=O)OCC(COC(=O)CCC(OCCCCCCCC)OCCCCCCCC)COC(=O)NCCN(CC)CC` (stereo not shown) [Compound 12, 3-((4,4-bis(octyloxy)butanoyl)oxy)-2-((((2-(diethylamino)ethyl)carbamoyl)oxy)methyl)propyl (9Z,12Z)-octadeca-9,12-dienoate]: in data set [1] (setting [5]), the “% E (encapsulation efficiency)” value stood at 97%. In data set [1] (LNP, sg:mRNA 1:1, N/P about 6, amine lipid/DSPC/cholesterol/PEG-2k-DMG 50/9/38/3, Table 2, Experiments 2-20), the “Encapsulation (%)” value is listed as 83%. Further, the “Number mean (nm)” value is 62 nm in data set [2] (setting [5]) and 73.4 nm in data set [2] (setting [6]). Besides, the PDI in data set [2] (setting [5]) came out at 0.06; in data set [2] (setting [6]), 0.007. In addition, the “Z-avg (nm)” value is given as 80 nm in data set [2] (setting [5]) and 88.53 nm in data set [2] (setting [6]). Moreover, the “Serum TTR % TSS” value in the data set on Transthyretin (TTR) [3] (mouse serum TTR relative to TSS control) was determined as 81%; in the data set on Transthyretin (TTR) [4] (G534, i.v. 0.1 mg/kg), 45.9 % TSS; in the data set on Transthyretin (TTR) [4] (G534, i.v. 0.3 mg/kg), 5.5 % TSS. The “Serum TTR” value was 736 µg/mL in the data set on Transthyretin (TTR) [3] (mouse serum, ELISA); 744.2 µg/mL in the data set on Transthyretin (TTR) [4] (i.v. 0.1 mg/kg); 89.1 µg/mL with Transthyretin (TTR) [4] (i.v. 0.3 mg/kg). Moreover, the “Editing Mean % Indel” value in the data set with TTR rat gene (i.v. 0.1 mg/kg) is recorded as 37.6%; with TTR rat gene (i.v. 0.3 mg/kg), 62.5%.

The record behind these values is patent US20220402862A1 (Intellia Therapeutics, Inc., priority 2019, published 2022).
